Measurements from publication PMC8031368 (ACS chemical biology, 2020).

Experiments:
PR = target: T1, PR (Homo sapiens, UniProt P06401); test: 3H-progesterone displacement assay on MCF7 cells; format: binding
T1 sequence (P06401 1-933): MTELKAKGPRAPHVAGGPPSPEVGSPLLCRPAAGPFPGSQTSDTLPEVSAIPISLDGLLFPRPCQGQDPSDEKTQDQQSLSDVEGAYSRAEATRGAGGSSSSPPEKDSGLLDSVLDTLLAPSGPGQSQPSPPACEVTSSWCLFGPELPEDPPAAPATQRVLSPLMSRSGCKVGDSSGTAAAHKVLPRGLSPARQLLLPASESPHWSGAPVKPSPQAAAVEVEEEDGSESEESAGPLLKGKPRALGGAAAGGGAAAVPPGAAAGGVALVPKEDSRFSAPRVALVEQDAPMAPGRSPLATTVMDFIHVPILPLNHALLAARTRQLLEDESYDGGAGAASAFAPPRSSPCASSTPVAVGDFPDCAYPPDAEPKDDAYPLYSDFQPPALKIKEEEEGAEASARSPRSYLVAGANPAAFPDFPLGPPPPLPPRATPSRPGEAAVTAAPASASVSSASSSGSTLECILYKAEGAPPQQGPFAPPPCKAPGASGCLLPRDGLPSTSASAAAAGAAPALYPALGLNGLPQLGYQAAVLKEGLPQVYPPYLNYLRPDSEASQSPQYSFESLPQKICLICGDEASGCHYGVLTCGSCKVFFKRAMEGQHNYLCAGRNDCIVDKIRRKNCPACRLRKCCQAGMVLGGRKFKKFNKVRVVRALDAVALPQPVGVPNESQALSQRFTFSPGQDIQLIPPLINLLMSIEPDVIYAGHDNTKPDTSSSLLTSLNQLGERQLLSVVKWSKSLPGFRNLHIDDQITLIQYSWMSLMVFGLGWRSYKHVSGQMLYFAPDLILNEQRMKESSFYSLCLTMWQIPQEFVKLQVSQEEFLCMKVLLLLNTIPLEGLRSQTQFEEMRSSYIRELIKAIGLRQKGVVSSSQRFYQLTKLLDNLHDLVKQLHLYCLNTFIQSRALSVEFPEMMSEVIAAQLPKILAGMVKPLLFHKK

AR = target: T2, AR (Homo sapiens, UniProt P10275); test: 3H-dihydrotestosterone displacement assay on LNCaP-AR cells; format: binding
T2 sequence (P10275 1-920): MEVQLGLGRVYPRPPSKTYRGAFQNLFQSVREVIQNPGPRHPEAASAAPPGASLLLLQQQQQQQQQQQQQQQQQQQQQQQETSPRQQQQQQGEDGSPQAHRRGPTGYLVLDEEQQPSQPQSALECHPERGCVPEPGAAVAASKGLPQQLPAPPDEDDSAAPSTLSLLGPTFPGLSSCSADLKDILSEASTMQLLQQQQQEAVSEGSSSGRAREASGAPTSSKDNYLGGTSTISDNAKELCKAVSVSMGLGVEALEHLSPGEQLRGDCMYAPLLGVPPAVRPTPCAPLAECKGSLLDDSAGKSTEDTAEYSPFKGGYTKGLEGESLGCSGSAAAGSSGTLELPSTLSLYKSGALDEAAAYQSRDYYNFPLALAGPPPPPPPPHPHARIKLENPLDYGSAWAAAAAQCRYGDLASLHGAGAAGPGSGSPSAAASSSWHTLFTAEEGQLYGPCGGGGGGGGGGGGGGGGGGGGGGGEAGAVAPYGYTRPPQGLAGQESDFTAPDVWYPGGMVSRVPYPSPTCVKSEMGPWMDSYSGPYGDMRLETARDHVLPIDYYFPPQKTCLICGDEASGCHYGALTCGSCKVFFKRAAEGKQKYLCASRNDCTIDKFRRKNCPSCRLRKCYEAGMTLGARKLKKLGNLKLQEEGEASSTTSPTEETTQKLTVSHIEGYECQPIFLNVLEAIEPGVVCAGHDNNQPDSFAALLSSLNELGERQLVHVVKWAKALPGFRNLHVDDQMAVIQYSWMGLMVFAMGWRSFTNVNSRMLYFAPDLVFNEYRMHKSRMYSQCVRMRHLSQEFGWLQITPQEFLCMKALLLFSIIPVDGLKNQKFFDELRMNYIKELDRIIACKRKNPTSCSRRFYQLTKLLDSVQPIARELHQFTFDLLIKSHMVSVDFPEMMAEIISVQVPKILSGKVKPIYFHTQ

GR = target: T3, GR (Homo sapiens, UniProt P04150); test: 3H-dexamethasone displacement assay on DU145 cells; format: binding
T3 sequence (P04150 1-777): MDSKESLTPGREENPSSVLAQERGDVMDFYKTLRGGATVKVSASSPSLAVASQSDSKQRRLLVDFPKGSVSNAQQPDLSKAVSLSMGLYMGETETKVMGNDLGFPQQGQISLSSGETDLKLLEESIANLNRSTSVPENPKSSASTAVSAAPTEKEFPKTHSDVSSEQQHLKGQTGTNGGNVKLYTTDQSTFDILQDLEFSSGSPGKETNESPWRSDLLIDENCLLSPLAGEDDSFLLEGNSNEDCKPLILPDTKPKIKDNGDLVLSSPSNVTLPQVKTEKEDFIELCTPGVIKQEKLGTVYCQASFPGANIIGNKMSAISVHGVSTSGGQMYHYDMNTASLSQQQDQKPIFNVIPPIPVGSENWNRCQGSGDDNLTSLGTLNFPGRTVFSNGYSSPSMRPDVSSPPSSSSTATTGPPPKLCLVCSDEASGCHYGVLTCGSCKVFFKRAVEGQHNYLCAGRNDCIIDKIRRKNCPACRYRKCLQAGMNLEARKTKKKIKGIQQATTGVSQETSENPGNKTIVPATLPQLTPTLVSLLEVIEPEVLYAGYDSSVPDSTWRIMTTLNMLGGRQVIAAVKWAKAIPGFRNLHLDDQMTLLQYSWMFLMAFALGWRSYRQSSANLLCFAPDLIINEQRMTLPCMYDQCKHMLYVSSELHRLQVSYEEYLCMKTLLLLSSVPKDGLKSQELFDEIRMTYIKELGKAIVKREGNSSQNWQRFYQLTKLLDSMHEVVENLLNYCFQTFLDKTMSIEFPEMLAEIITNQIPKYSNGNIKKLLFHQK

[1] = tested on: GR target genes (GILZ, FKBP5, Per1) in DU145 cells; test: Real time PCR of GR target genes in DU145 cells; format: cell-based, human
ER = target: T4, ER (Homo sapiens, UniProt P03372); test: 3H-estradiol displacement assay on MCF7 cells; format: binding
T4 sequence (P03372 1-595): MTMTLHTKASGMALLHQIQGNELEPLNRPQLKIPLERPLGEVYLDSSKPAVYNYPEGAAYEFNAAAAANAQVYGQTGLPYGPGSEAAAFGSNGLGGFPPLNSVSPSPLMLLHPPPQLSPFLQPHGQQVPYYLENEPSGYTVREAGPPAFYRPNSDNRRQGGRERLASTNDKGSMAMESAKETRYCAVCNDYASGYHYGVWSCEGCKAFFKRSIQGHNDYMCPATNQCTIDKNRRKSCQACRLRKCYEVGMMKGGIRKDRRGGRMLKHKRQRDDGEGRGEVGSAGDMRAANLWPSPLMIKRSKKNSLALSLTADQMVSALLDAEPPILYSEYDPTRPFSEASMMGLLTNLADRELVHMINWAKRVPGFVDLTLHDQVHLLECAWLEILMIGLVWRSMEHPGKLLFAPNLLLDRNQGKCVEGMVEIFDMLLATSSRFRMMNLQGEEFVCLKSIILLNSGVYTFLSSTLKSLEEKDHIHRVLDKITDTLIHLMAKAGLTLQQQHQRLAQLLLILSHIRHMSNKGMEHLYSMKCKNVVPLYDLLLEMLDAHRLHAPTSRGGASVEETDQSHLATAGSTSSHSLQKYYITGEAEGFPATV

Compound: COc1cccc2c1-c1ccc3c(c1C(Cc1ccc(F)cc1)O2)C(C)=CC(C)(C)N3 (centres unmarked) [YJH08, 5-(4-fluorobenzyl)-10-methoxy-2,2,4-trimethyl-2,5-dihydro-1H-chromeno[3,4-f]quinoline]
- Ki (PR): 555 nM
- Ki (AR): 220 nM
- Ki (GR; Ki GR, 3H-dexamethasone displacement, DU145 cells, one site Ki fit): 0.401 nM
- Ki (GR; Ki for GR): ~0.4 nM
- levels of GR target genes GILZ, FKBP5 ([1]; DU145 cells, 10 μM, 6 h exposure, real time PCR): elevated
- induction of Per1 ([1]; DU145 cells, YJH08 10 μM, 6 h exposure): induced by dexamethasone but not YJH08
- GR functional activity (overall assessment) ([1]; from target gene induction in DU145 cells): mild GR agonist
- Ki (ER): 19000 nM
